# Assay results as given in patent US20230173032A1, “Treatment of Hyperuricemia” (Frederiksberg Hospital, priority 2020, published 2023).
# Assays:
# [1] = LOSE-IT trial (NCT02905864): serious adverse events and deaths; type: in vivo, human; conditions: liraglutide 3 mg/day, 52 weeks
# Procedure: Methods: In the LOSE-IT trial (NCT02905864), a randomised, double-blinded, placebo-controlled, parallel group, single-centre trial, 156 overweight and obese individuals with knee joint pain, were offered an initial 8-week intensive diet intervention (week −8 to 0) on Cambridge Weight Plan (800-1000 kcal/day) followed by a weight loss maintenance period in which participants were randomised to either liraglutide 3 mg/day or placebo for 52 weeks. Subjects with type 1 diabetes or type 2 diabetes with glucose-lowering drugs other than metformin were excluded from the study.
# [2] = Semaglutide case studies: treatment emergent adverse events; type: in vivo, human
# Procedure: Two patients with chronic gout and no diabetes where treated with another type of GLP-1 analog: Semaglutide subcutaneous (sc) once weekly.
# Person, gout since more than 3 years no diabetes. Received 0.25 mg weekly for 6 weeks and then 0.5 mg twice.
# Person, gout since more than 4 years, no diabetes. Received 0.25 mg sc for 6 weeks and 0.5 mg sc for 4 weeks.
Structure (SMILES),deaths [1],participants who experienced serious adverse events [1],"treatment emergent adverse events, Patient 1 ([2]; 8 weeks treatment, nausea during the first 2 weeks)","treatment emergent adverse events, Patient 2 ([2]; 10 weeks treatment)"
"CCCCCCCCCCCCCCCC(=O)N[C@@H](CCC(=O)NCCCC[C@H](NC(=O)[C@H](C)NC(=O)[C@H](C)NC(=O)[C@H](CCC(N)=O)NC(=O)CNC(=O)[C@H](CCC(=O)O)NC(=O)[C@H](CC(C)C)NC(=O)[C@H](Cc1ccc(O)cc1)NC(=O)[C@H](CO)NC(=O)[C@H](CO)NC(=O)[C@@H](NC(=O)[C@H](CC(=O)O)NC(=O)[C@H](CO)NC(=O)[C@@H](NC(=O)[C@H](Cc1ccccc1)NC(=O)[C@@H](NC(=O)CNC(=O)[C@H](CCC(=O)O)NC(=O)[C@H](C)NC(=O)[C@@H](N)Cc1cnc[nH]1)[C@@H](C)O)[C@@H](C)O)C(C)C)C(=O)N[C@@H](CCC(=O)O)C(=O)N[C@@H](Cc1ccccc1)C(=O)N[C@H](C(=O)N[C@@H](C)C(=O)N[C@@H](Cc1c[nH]c2ccccc12)C(=O)N[C@@H](CC(C)C)C(=O)N[C@H](C(=O)N[C@@H](CCCNC(=N)N)C(=O)NCC(=O)N[C@@H](CCCNC(=N)N)C(=O)NCC(=O)O)C(C)C)[C@@H](C)CC)C(=O)O [liraglutide, Arg34, Lys26-(N-epsilon-(gamma-L-glutamyl(N-alfa-hexadecanoyl)))-GLP-I(7-37)]",no deaths were observed,Four,,
CC[C@H](C)[C@H](NC(=O)[C@H](Cc1ccccc1)NC(=O)[C@H](CCC(=O)O)NC(=O)[C@H](CCCCNC(=O)COCCOCCNC(=O)COCCOCCNC(=O)CC[C@H](NC(=O)CCCCCCCCCCCCCCCCC(=O)O)C(=O)O)NC(=O)[C@H](C)NC(=O)[C@H](C)NC(=O)[C@H](CCC(N)=O)NC(=O)CNC(=O)[C@H](CCC(=O)O)NC(=O)[C@H](CC(C)C)NC(=O)[C@H](Cc1ccc(O)cc1)NC(=O)[C@H](CO)NC(=O)[C@H](CO)NC(=O)[C@@H](NC(=O)[C@H](CC(=O)O)NC(=O)[C@H](CO)NC(=O)[C@@H](NC(=O)[C@H](Cc1ccccc1)NC(=O)[C@@H](NC(=O)CNC(=O)[C@H](CCC(=O)O)NC(=O)C(C)(C)NC(=O)[C@@H](N)Cc1cnc[nH]1)[C@@H](C)O)[C@@H](C)O)C(C)C)C(=O)N[C@@H](C)C(=O)N[C@@H](Cc1c[nH]c2ccccc12)C(=O)N[C@@H](CC(C)C)C(=O)N[C@H](C(=O)N[C@@H](CCCNC(=N)N)C(=O)NCC(=O)N[C@@H](CCCNC(=N)N)C(=O)NCC(=O)O)C(C)C [Semaglutide],,,No treatment emergent adverse events were experienced apart from slight nausea,No treatment emergent adverse events were experienced apart from slight constipation
